In article PMC8698454, “Anti-Colonization Effect of Au Surfaces with Self-Assembled Molecular Monolayers Functionalized with Antimicrobial Peptides on S. epidermidis” (Antibiotics, 2021):
Converted amounts (≈) assume the structure as drawn. Like-named read-outs stand apart in the source and are kept apart here. Where a SMILES comes first, the peptide text is derived from it. [ ]: non-standard residue; d: D form. Bip = N[C@@H](Cc1ccc(-c2ccccc2)cc1)C(=O)O; Lys(N3) = [N-]=[N+]=NCCCC[C@H](N)C(=O)O

How the values were obtained:
Assay type in all cases: cell-based
[1] = test system: Staphylococcus aureus ATCC 9144; conditions: for Antimicrobial Activity (MIC) S. aureus: ATCC 9144; for MIC S. aureus ATCC 9144: Table S3
Protocol: (§1) The minimal inhibitory concentration (MIC) of peptides 1a, 1b, 2a, and 2b were determined by broth microdilution according to the Clinical Laboratory Standard Institute (CLSI) method […]-A9. The MICs of the peptides 1c, 1d, 2c, and 2d were determined by broth dilution according to the European Committee for Antimicrobial Susceptibility Testing (EUCAST). Final concentrations of 0.5-256 μg/mL were tested against a panel of reference bacteria-S. aureus (ATCC 9144), S. epidermidis (1457), E. coli (ATCC 25922), and P. aeruginosa (ATCC 27853). Each strain was tested in biological triplicate. The MIC values were defined as the lowest concentration of the peptides resulting in no visual growth.

[2] = test system: Pseudomonas aeruginosa ATCC 27853; conditions: for Antimicrobial Activity (MIC) P. aeruginosa: ATCC 27853; for MIC P. aeruginosa ATCC 27853: Table S3
Protocol: as §1

[3] = test system: Staphylococcus epidermidis 1457; conditions: for MIC S. epidermidis 1457: Table S3
Protocol: as §1

[4] = test system: Escherichia coli ATCC 25922; conditions: for Antimicrobial Activity (MIC) E. coli: ATCC 25922; for MIC E. coli ATCC 25922: Table S3
Protocol: as §1

[5] = technical replicate 1, biological replicate BR1
[6] = technical replicate 1, biological replicate BR2
[7] = technical replicate 1, biological replicate BR3
[8] = technical replicate 2, biological replicate BR1
[9] = technical replicate 2, biological replicate BR2
[10] = technical replicate 2, biological replicate BR3
[11] = technical replicate 3, biological replicate BR1
[12] = technical replicate 3, biological replicate BR2
[13] = technical replicate 3, biological replicate BR3
[14] = broth microdilution CLSI M07-A9 (1a,1b,2a,2b) or broth dilution EUCAST (1c,1d,2c,2d), 0.5-256 µg/mL tested, biological triplicate, no visual growth

Compound | MIC S. aureus ATCC 9144 [1, 5] | MIC S. aureus ATCC 9144 [1, 6] | MIC S. aureus ATCC 9144 [1, 7] | MIC S. aureus ATCC 9144 [1, 8] | MIC S. aureus ATCC 9144 [1, 9] | MIC S. aureus ATCC 9144 [1, 10] | MIC S. aureus ATCC 9144 [1, 11] | MIC S. aureus ATCC 9144 [1, 12] | MIC S. aureus ATCC 9144 [1, 13] | MIC P. aeruginosa ATCC 27853 [2, 5] | MIC P. aeruginosa ATCC 27853 [2, 6] | MIC P. aeruginosa ATCC 27853 [2, 7] | MIC P. aeruginosa ATCC 27853 [2, 8] | MIC P. aeruginosa ATCC 27853 [2, 9] | MIC P. aeruginosa ATCC 27853 [2, 10] | MIC P. aeruginosa ATCC 27853 [2, 11] | MIC P. aeruginosa ATCC 27853 [2, 12] | MIC P. aeruginosa ATCC 27853 [2, 13] | MIC S. epidermidis 1457 [3, 5] | MIC S. epidermidis 1457 [3, 6] | further results
[N-]=[N+]=NCCCC[C@@H]1NC(=O)[C@H](Cc2ccccc2)NC(=O)[C@H](CCCNC(=N)N)NC(=O)[C@H](Cc2ccc(-c3ccccc3)cc2)NC(=O)[C@H](Cc2ccc(-c3ccccc3)cc2)NC(=O)[C@H](CCCNC(=N)N)NC1=O [2d] (cyclo(R[Bip][Bip]RF[Lys(N3)])) | 8 µg/mL (≈ 7.55 µM) | 4 µg/mL (≈ 3.77 µM) | 4 µg/mL (≈ 3.77 µM) | 4 µg/mL (≈ 3.77 µM) | 4 µg/mL (≈ 3.77 µM) | 8 µg/mL (≈ 7.55 µM) | 4 µg/mL (≈ 3.77 µM) | 4 µg/mL (≈ 3.77 µM) | 4 µg/mL (≈ 3.77 µM) | 256 µg/mL (≈ 241 µM) | 256 µg/mL (≈ 241 µM) | 256 µg/mL (≈ 241 µM) | 256 µg/mL (≈ 241 µM) | 256 µg/mL (≈ 241 µM) | 256 µg/mL (≈ 241 µM) | 256 µg/mL (≈ 241 µM) | 256 µg/mL (≈ 241 µM) | 256 µg/mL (≈ 241 µM) | 4 µg/mL (≈ 3.77 µM) | 2 µg/mL (≈ 1.89 µM) | Antimicrobial Activity (MIC) S. aureus [1]: 4 µg/mL; Antimicrobial Activity (MIC) P. aeruginosa [2]: 256 µg/mL; Antimicrobial Activity (MIC) S. epidermidis [3]; 1457: 2 µg/mL; MIC S. epidermidis 1457 [3, 7]: 2 µg/mL (≈ 1.89 µM); MIC S. epidermidis 1457 [3, 8]: 2 µg/mL (≈ 1.89 µM); MIC S. epidermidis 1457 [3, 9]: 2 µg/mL (≈ 1.89 µM); MIC S. epidermidis 1457 [3, 10]: 2 µg/mL (≈ 1.89 µM); MIC S. epidermidis 1457 [3, 11]: 2 µg/mL (≈ 1.89 µM); MIC S. epidermidis 1457 [3, 12]: 2 µg/mL (≈ 1.89 µM); MIC S. epidermidis 1457 [3, 13]: 2 µg/mL (≈ 1.89 µM); Antimicrobial Activity (MIC) E. coli [4]: 64 µg/mL; MIC E. coli ATCC 25922 [4, 5]: 64 µg/mL (≈ 60.4 µM); MIC E. coli ATCC 25922 [4, 6]: 64 µg/mL (≈ 60.4 µM); MIC E. coli ATCC 25922 [4, 7]: 64 µg/mL (≈ 60.4 µM); MIC E. coli ATCC 25922 [4, 8]: 64 µg/mL (≈ 60.4 µM); MIC E. coli ATCC 25922 [4, 9]: 64 µg/mL (≈ 60.4 µM); MIC E. coli ATCC 25922 [4, 10]: 32 µg/mL (≈ 30.2 µM); MIC E. coli ATCC 25922 [4, 11]: 64 µg/mL (≈ 60.4 µM); MIC E. coli ATCC 25922 [4, 12]: 64 µg/mL (≈ 60.4 µM); MIC E. coli ATCC 25922 [4, 13]: 32 µg/mL (≈ 30.2 µM)
[N-]=[N+]=NCCCC[C@H](NC(=O)[C@H](Cc1ccccc1)NC(=O)[C@H](CCCNC(=N)N)NC(=O)[C@H](Cc1ccc(-c2ccccc2)cc1)NC(=O)[C@H](Cc1ccc(-c2ccccc2)cc1)NC(=O)[C@@H](N)CCCNC(=N)N)C(N)=O [2c] (H-R[Bip][Bip]RF[Lys(N3)]-NH2) | 8 µg/mL (≈ 7.43 µM) | 4 µg/mL (≈ 3.71 µM) | 8 µg/mL (≈ 7.43 µM) | 8 µg/mL (≈ 7.43 µM) | 8 µg/mL (≈ 7.43 µM) | 8 µg/mL (≈ 7.43 µM) | 8 µg/mL (≈ 7.43 µM) | 4 µg/mL (≈ 3.71 µM) | 8 µg/mL (≈ 7.43 µM) | 8 µg/mL (≈ 7.43 µM) | 8 µg/mL (≈ 7.43 µM) | 16 µg/mL (≈ 14.9 µM) | 16 µg/mL (≈ 14.9 µM) | 16 µg/mL (≈ 14.9 µM) | 16 µg/mL (≈ 14.9 µM) | 16 µg/mL (≈ 14.9 µM) | 8 µg/mL (≈ 7.43 µM) | 16 µg/mL (≈ 14.9 µM) | 8 µg/mL (≈ 7.43 µM) | 4 µg/mL (≈ 3.71 µM) | Antimicrobial Activity (MIC) S. aureus [1]: 8 µg/mL; Antimicrobial Activity (MIC) P. aeruginosa [2]: 16 µg/mL; Antimicrobial Activity (MIC) S. epidermidis [3]; 1457: 4 µg/mL; MIC S. epidermidis 1457 [3, 7]: 8 µg/mL (≈ 7.43 µM); MIC S. epidermidis 1457 [3, 8]: 4 µg/mL (≈ 3.71 µM); MIC S. epidermidis 1457 [3, 9]: 4 µg/mL (≈ 3.71 µM); MIC S. epidermidis 1457 [3, 10]: 8 µg/mL (≈ 7.43 µM); MIC S. epidermidis 1457 [3, 11]: 4 µg/mL (≈ 3.71 µM); MIC S. epidermidis 1457 [3, 12]: 4 µg/mL (≈ 3.71 µM); MIC S. epidermidis 1457 [3, 13]: 8 µg/mL (≈ 7.43 µM); Antimicrobial Activity (MIC) E. coli [4]: 8 µg/mL; MIC E. coli ATCC 25922 [4, 5]: 8 µg/mL (≈ 7.43 µM); MIC E. coli ATCC 25922 [4, 6]: 8 µg/mL (≈ 7.43 µM); MIC E. coli ATCC 25922 [4, 7]: 16 µg/mL (≈ 14.9 µM); MIC E. coli ATCC 25922 [4, 8]: 8 µg/mL (≈ 7.43 µM); MIC E. coli ATCC 25922 [4, 9]: 8 µg/mL (≈ 7.43 µM); MIC E. coli ATCC 25922 [4, 10]: 16 µg/mL (≈ 14.9 µM); MIC E. coli ATCC 25922 [4, 11]: 8 µg/mL (≈ 7.43 µM); MIC E. coli ATCC 25922 [4, 12]: 16 µg/mL (≈ 14.9 µM); MIC E. coli ATCC 25922 [4, 13]: 8 µg/mL (≈ 7.43 µM)
N3-PEG200-RWWRF [1a, azidopeptide N3-PEG200-RWWRF, PEG200-linked, amidated C-terminus] | 64 µg/mL | 64 µg/mL | 64 µg/mL | 64 µg/mL | 64 µg/mL | 64 µg/mL | 64 µg/mL | 64 µg/mL | 64 µg/mL | 256 µg/mL | 256 µg/mL | 256 µg/mL | 256 µg/mL | 256 µg/mL | 256 µg/mL | 256 µg/mL | 256 µg/mL | 256 µg/mL | 32 µg/mL | 32 µg/mL | Antimicrobial Activity (MIC) S. aureus ([1]; broth microdilution CLSI M07-A9 (1a,1b,2a,2b) or broth dilution EUCAST (1c,1d,2c,2d), 0.5-256 µg/mL tested, biological triplicate, lowest concentration with no visual growth): 64 µg/mL; Antimicrobial Activity (MIC) P. aeruginosa [2, 14]: 256 µg/mL; MIC S. epidermidis 1457 [3, 7]: 32 µg/mL; MIC S. epidermidis 1457 [3, 8]: 32 µg/mL; MIC S. epidermidis 1457 [3, 9]: 32 µg/mL; MIC S. epidermidis 1457 [3, 10]: 32 µg/mL; MIC S. epidermidis 1457 [3, 11]: 32 µg/mL; MIC S. epidermidis 1457 [3, 12]: 32 µg/mL; MIC S. epidermidis 1457 [3, 13]: 32 µg/mL; Antimicrobial Activity (MIC) S. epidermidis ([3]; strain 1457, broth microdilution CLSI M07-A9 (1a,1b,2a,2b) or broth dilution EUCAST (1c,1d,2c,2d), 0.5-256 µg/mL tested, biological triplicate, no visual growth): 32 µg/mL; Antimicrobial Activity (MIC) E. coli [4, 14]: 256 µg/mL; MIC E. coli ATCC 25922 [4, 5]: 128 µg/mL; MIC E. coli ATCC 25922 [4, 6]: 256 µg/mL; MIC E. coli ATCC 25922 [4, 7]: 256 µg/mL; MIC E. coli ATCC 25922 [4, 8]: 128 µg/mL; MIC E. coli ATCC 25922 [4, 9]: 256 µg/mL; MIC E. coli ATCC 25922 [4, 10]: 256 µg/mL; MIC E. coli ATCC 25922 [4, 11]: 128 µg/mL; MIC E. coli ATCC 25922 [4, 12]: 256 µg/mL; MIC E. coli ATCC 25922 [4, 13]: 256 µg/mL
